Experimental data from article PMC4685510, “A Cell Biologist’s Field Guide to Aurora Kinase Inhibitors” (Frontiers in Oncology, 2015).

Columns and labels:
Experiment in all cases: biochemical
Type in all cases: biochemical
[1] = biological target: 363 human kinases (including Aurora A/B/C) (Homo sapiens, UniProt P27361); conditions: ERK1, [ATP] 100 µM; for remaining activity at 0.1 µM: 100 nM; for remaining activity at 0.1 µM / remaining activity at 0.5 µM: read-out: % Enzyme Activity (relative to DMSO controls)
Description: (§1) However, the Aurora A/B selectivity ratios derived from our in vitro and in vivo data can be compared to prioritize inhibitors.

[2] = biological target: 363 human kinases (including Aurora A/B/C) (Homo sapiens, UniProt P49759); conditions: CLK1, [ATP] 2.5 µM; for remaining activity at 0.1 µM: 100 nM; for remaining activity at 0.1 µM / remaining activity at 0.5 µM: read-out: % Enzyme Activity (relative to DMSO controls)
Description: as §1

[3] = biological target: 363 human kinases (including Aurora A/B/C) (Homo sapiens, UniProt O75716); conditions: STK16; for remaining activity at 0.1 µM: 100 nM; for remaining activity at 0.1 µM / remaining activity at 0.5 µM: read-out: % Enzyme Activity (relative to DMSO controls)
Description: as §1

[4] = biological target: T1, 363 human kinases (including Aurora A/B/C) (Homo sapiens, UniProt Q6PHR2); conditions: ULK3; for remaining activity at 0.1 µM: 100 nM; for remaining activity at 0.1 µM / remaining activity at 0.5 µM: read-out: % Enzyme Activity (relative to DMSO controls)
T1 sequence (Q6PHR2 1-472): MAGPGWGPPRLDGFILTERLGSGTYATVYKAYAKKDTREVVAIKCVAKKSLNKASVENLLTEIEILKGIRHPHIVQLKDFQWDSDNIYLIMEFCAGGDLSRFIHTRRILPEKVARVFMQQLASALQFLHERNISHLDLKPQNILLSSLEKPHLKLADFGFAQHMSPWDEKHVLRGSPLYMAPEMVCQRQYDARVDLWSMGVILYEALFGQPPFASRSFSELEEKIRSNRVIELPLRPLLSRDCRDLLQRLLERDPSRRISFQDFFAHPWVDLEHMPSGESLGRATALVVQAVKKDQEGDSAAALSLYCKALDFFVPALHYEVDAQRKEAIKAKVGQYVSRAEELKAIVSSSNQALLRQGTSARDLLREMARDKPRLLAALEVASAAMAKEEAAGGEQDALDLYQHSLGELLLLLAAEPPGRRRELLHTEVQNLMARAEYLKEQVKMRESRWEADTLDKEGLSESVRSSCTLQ
Description: as §1

[5] = biological target: 363 human kinases (including Aurora A/B/C) (Homo sapiens, UniProt Q9Y243); conditions: AKT3, [ATP] 50 µM; for remaining activity at 0.1 µM: 100 nM; for remaining activity at 0.1 µM / remaining activity at 0.5 µM: read-out: % Enzyme Activity (relative to DMSO controls)
Description: as §1

[6] = biological target: 363 human kinases (including Aurora A/B/C) (Homo sapiens, UniProt Q13153); conditions: PAK1; for remaining activity at 0.1 µM: 100 nM; for remaining activity at 0.1 µM / remaining activity at 0.5 µM: read-out: % Enzyme Activity (relative to DMSO controls)
Description: as §1

[7] = biological target: T2, 363 human kinases (including Aurora A/B/C) (Homo sapiens, UniProt Q99986); conditions: VRK1; for remaining activity at 0.1 µM: 100 nM; for remaining activity at 0.1 µM / remaining activity at 0.5 µM: read-out: % Enzyme Activity (relative to DMSO controls)
T2 sequence (Q99986 1-396): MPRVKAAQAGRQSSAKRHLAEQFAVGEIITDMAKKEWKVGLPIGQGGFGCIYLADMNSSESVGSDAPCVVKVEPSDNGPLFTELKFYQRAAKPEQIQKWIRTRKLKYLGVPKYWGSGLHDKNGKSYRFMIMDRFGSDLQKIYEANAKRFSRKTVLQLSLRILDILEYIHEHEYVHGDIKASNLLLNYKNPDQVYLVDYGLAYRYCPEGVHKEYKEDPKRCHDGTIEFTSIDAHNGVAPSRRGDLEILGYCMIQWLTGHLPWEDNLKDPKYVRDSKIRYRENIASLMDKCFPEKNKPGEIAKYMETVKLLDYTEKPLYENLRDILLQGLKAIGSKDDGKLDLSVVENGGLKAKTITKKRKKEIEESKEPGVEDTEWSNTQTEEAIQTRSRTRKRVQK
Description: as §1

[8] = biological target: T3, 363 human kinases (including Aurora A/B/C) (Homo sapiens, UniProt Q04771); conditions: ALK2/ACVR1, [ATP] 20 µM; for remaining activity at 0.1 µM: 100 nM; for remaining activity at 0.1 µM / remaining activity at 0.5 µM: read-out: % Enzyme Activity (relative to DMSO controls)
T3 sequence (Q04771 21-509): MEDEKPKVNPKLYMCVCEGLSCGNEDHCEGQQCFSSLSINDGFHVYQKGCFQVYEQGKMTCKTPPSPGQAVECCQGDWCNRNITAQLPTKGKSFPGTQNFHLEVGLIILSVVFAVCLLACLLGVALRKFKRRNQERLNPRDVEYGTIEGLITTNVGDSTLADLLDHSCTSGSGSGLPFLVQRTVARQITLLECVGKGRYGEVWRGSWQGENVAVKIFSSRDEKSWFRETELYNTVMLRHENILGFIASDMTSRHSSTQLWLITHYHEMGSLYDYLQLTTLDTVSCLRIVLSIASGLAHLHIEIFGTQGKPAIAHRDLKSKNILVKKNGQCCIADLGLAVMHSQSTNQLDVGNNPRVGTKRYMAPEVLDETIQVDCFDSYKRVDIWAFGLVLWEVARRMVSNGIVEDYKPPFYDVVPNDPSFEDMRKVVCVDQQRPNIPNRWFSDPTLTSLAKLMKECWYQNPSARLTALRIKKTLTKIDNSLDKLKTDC
Description: as §1

[9] = biological target: 363 human kinases (including Aurora A/B/C) (Homo sapiens, UniProt P50613); conditions: CDK7/cyclin H, [ATP] 50 µM; for remaining activity at 0.1 µM: 100 nM; for remaining activity at 0.1 µM / remaining activity at 0.5 µM: read-out: % Enzyme Activity (relative to DMSO controls)
Description: as §1

[10] = biological target: 363 human kinases (including Aurora A/B/C) (Homo sapiens, UniProt Q15375); conditions: EPHA7, [ATP] 100 µM; for remaining activity at 0.1 µM: 100 nM; for remaining activity at 0.1 µM / remaining activity at 0.5 µM: read-out: % Enzyme Activity (relative to DMSO controls)
Description: as §1

[11] = biological target: 363 human kinases (including Aurora A/B/C) (Homo sapiens, UniProt O75582); conditions: MSK1/RPS6KA5; for remaining activity at 0.1 µM: 100 nM; for remaining activity at 0.1 µM / remaining activity at 0.5 µM: read-out: % Enzyme Activity (relative to DMSO controls)
Description: as §1

[12] = biological target: T4, 363 human kinases (including Aurora A/B/C) (Homo sapiens, UniProt P51817); conditions: PRKX; for remaining activity at 0.1 µM: 100 nM; for remaining activity at 0.1 µM / remaining activity at 0.5 µM: read-out: % Enzyme Activity (relative to DMSO controls)
T4 sequence (P51817 1-358): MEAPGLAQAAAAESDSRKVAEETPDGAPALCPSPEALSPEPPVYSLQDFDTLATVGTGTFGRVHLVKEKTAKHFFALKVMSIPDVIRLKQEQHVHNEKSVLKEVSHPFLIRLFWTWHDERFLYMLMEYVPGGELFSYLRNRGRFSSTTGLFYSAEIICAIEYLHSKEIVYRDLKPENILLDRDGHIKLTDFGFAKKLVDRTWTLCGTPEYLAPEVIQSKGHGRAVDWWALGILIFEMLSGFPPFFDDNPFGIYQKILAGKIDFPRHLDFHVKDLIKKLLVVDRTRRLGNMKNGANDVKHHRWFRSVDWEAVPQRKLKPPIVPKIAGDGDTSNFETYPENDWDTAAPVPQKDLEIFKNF
Description: as §1

363 human kinases (including Aurora A/B/C) (Homo sapiens, UniProt Q13153), sequence (Q13153 whole entry): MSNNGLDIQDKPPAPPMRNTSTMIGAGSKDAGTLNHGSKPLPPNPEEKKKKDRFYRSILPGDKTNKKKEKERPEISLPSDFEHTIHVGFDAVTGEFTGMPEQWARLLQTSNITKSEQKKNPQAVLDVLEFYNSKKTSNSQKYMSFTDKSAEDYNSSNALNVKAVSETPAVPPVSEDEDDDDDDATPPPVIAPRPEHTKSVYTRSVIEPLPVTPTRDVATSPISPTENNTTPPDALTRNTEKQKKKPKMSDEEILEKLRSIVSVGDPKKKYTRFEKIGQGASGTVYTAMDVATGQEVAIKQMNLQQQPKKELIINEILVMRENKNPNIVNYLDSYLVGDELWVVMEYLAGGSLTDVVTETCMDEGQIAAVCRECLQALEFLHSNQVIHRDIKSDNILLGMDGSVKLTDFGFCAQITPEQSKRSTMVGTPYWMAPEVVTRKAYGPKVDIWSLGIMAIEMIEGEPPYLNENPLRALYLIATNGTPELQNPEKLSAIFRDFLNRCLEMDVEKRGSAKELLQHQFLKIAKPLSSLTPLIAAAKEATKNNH
363 human kinases (including Aurora A/B/C) (Homo sapiens, UniProt O75716), sequence (O75716 whole entry): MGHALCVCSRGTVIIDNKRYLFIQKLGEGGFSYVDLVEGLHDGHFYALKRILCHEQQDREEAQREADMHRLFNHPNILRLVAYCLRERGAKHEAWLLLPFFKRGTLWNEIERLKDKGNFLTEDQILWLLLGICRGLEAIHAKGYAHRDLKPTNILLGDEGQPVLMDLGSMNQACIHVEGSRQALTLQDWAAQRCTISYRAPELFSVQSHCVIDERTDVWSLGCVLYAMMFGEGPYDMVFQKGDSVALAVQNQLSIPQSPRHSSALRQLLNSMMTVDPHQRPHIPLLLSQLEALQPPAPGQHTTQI
363 human kinases (including Aurora A/B/C) (Homo sapiens, UniProt P49759), sequence (P49759 whole entry): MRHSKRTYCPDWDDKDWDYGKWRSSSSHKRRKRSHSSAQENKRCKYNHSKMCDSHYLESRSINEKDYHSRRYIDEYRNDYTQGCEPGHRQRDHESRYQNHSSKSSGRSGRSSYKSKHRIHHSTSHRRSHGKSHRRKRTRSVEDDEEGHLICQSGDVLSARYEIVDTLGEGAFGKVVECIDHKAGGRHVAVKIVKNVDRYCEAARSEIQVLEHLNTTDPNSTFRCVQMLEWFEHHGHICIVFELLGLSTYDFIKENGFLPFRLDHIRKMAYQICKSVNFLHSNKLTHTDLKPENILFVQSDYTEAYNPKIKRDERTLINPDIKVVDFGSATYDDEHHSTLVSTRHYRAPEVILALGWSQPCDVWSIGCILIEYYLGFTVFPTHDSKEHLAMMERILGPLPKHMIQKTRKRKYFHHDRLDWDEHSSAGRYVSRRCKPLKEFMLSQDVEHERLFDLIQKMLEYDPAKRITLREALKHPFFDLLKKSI
363 human kinases (including Aurora A/B/C) (Homo sapiens, UniProt P50613), sequence (P50613 whole entry): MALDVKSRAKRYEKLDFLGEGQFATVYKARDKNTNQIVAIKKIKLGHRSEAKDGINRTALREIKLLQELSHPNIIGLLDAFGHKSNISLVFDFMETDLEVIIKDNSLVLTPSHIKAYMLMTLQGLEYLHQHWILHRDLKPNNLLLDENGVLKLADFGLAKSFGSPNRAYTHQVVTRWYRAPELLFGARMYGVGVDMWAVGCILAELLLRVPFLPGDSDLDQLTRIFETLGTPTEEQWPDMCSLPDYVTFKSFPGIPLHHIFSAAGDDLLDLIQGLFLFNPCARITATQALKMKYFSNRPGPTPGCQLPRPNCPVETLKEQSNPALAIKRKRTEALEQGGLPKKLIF
363 human kinases (including Aurora A/B/C) (Homo sapiens, UniProt Q9Y243), sequence (Q9Y243 whole entry): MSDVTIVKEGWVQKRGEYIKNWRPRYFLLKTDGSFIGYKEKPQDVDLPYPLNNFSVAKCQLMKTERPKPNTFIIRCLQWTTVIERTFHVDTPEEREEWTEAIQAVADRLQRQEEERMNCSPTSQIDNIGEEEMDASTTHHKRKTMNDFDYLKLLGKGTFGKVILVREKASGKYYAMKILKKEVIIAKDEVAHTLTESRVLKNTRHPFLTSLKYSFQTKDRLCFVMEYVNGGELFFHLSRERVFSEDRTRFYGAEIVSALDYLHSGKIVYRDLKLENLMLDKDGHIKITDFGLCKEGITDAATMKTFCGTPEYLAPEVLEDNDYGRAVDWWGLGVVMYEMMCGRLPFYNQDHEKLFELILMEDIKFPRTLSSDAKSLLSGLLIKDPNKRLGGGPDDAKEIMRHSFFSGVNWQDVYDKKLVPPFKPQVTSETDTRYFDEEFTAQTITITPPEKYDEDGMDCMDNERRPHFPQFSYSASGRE
363 human kinases (including Aurora A/B/C) (Homo sapiens, UniProt Q15375), sequence (Q15375 28-998): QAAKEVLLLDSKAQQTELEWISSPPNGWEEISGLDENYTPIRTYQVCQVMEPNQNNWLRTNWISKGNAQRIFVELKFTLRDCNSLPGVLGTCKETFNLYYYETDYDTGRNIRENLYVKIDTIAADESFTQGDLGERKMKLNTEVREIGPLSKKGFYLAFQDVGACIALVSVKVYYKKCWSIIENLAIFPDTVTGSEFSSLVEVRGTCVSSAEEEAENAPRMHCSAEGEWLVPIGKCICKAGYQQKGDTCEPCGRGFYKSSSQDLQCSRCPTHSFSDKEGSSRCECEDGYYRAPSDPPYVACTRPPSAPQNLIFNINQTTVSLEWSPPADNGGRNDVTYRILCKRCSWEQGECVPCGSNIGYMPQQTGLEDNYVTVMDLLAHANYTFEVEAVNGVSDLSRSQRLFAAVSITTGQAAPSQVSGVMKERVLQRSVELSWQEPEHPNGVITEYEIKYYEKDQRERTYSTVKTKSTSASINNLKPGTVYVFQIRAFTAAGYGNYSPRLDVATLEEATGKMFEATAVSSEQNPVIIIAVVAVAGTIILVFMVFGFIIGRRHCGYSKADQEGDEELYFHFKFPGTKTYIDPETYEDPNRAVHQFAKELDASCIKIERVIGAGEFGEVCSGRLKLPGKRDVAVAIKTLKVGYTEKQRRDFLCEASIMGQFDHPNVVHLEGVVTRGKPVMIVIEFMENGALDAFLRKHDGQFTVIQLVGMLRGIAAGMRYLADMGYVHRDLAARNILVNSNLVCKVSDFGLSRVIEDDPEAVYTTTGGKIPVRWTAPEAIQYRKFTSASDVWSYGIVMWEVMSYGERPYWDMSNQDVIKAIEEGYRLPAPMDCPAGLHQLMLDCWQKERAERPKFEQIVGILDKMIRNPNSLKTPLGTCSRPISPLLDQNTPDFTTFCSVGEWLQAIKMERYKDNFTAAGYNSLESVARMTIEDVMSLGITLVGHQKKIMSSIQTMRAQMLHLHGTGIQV
363 human kinases (including Aurora A/B/C) (Homo sapiens, UniProt P27361), sequence (P27361 whole entry): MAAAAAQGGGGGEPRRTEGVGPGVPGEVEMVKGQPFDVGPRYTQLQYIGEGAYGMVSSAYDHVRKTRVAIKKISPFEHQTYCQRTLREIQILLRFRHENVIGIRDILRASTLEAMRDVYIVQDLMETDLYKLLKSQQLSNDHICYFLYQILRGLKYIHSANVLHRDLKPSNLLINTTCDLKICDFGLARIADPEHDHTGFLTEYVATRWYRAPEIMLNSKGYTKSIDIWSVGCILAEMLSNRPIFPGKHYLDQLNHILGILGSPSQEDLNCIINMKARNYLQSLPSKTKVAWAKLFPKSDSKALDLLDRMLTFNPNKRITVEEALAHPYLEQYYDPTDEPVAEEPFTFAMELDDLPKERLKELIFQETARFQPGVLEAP
363 human kinases (including Aurora A/B/C) (Homo sapiens, UniProt O75582), sequence (O75582 whole entry): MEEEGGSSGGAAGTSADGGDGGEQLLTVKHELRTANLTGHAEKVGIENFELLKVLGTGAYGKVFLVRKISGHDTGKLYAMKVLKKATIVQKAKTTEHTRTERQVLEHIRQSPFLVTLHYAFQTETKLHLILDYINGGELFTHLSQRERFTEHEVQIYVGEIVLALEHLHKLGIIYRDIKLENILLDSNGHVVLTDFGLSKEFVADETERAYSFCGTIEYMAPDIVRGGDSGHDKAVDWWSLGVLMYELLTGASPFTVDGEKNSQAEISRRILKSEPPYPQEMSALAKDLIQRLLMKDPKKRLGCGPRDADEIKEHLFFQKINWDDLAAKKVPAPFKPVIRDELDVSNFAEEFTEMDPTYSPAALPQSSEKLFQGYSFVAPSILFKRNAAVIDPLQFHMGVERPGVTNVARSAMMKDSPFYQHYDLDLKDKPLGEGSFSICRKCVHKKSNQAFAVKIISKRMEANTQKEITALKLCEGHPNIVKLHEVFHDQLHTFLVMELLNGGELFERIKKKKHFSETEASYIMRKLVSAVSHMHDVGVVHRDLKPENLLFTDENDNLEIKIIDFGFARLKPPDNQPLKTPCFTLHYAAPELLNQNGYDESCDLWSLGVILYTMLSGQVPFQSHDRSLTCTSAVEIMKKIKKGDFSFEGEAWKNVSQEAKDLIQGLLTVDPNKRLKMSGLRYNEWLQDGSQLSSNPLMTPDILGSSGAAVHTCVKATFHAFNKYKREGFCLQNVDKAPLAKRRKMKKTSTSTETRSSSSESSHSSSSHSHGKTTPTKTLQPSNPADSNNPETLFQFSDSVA

Row | Compound | remaining activity at 0.1 µM [1] | remaining activity at 0.5 µM ([1]; 500 nM) | remaining activity at 0.1 µM [2] | remaining activity at 0.5 µM ([2]; 500 nM) | remaining activity at 0.1 µM [3] | remaining activity at 0.5 µM ([3]; 500 nM) | remaining activity at 0.1 µM [4] | remaining activity at 0.5 µM ([4]; 500 nM) | remaining activity at 0.1 µM [5] | remaining activity at 0.5 µM ([5]; 500 nM) | remaining activity at 0.1 µM [6] | remaining activity at 0.5 µM ([6]; 500 nM) | remaining activity at 0.1 µM [7] | remaining activity at 0.5 µM ([7]; 500 nM) | remaining activity at 0.1 µM [8] | remaining activity at 0.5 µM ([8]; 500 nM) | remaining activity at 0.1 µM [9] | remaining activity at 0.5 µM ([9]; 500 nM) | remaining activity at 0.1 µM [10] | remaining activity at 0.5 µM ([10]; 500 nM) | further results
1 | O=C(O)[C@]1(Cc2cccc(Nc3nccs3)n2)CC[C@@H](Oc2cccc(Cl)c2F)CC1 [MK-5108] | 88.9% | 107% | 68.1% | 29.1% | 70.7% | 15.2% | 89.6% | 62.1% | 97.4% | 99.1% | 93.7% | 81.2% | 86.9% | 94% | 116% | 34.5% | 95.9% | 112% | 35.6% | 9.76% | remaining activity at 0.1 µM [11]: 99.7%; remaining activity at 0.5 µM ([11]; 500 nM): 86.8%; remaining activity at 0.1 µM [12]: 99.8%; remaining activity at 0.5 µM ([12]; 500 nM): 97.6%
2 | O=C(c1cccc(Cl)c1F)N1CCN(Cc2cccc(Nc3nccs3)n2)CC1 [MK-8745] |  | 102% |  | 92.5% |  | 71.1% |  | 94.4% |  | 98.6% |  | 87.5% |  | 97.3% |  | 146% |  | 110% |  | 63.1% | % Enzyme Activity (relative to DMSO controls) ([1]; 500 nM): 100.59%; % Enzyme Activity (relative to DMSO controls) ([2]; 500 nM): 91.67%; % Enzyme Activity (relative to DMSO controls) ([3]; 500 nM): 70.34%; % Enzyme Activity (relative to DMSO controls) ([4]; 500 nM): 93.40%; % Enzyme Activity (relative to DMSO controls) ([5]; 500 nM): 98.52%; % Enzyme Activity (relative to DMSO controls) ([6]; 500 nM): 85.62%; % Enzyme Activity (relative to DMSO controls) ([7]; 500 nM): 94.39%; % Enzyme Activity (relative to DMSO controls) ([8]; 500 nM): 140.43%; % Enzyme Activity (relative to DMSO controls) ([9]; 500 nM): 107.62%; % Enzyme Activity (relative to DMSO controls) ([10]; 500 nM): 62.14%; % Enzyme Activity (relative to DMSO controls) ([11]; 500 nM): 93.34%; remaining activity at 0.5 µM ([11]; 500 nM): 96.3%; % Enzyme Activity (relative to DMSO controls) ([12]; 500 nM): 95.41%; remaining activity at 0.5 µM ([12]; 500 nM): 96.5%
3 | CCn1cc(-c2ccnc3[nH]c(-c4cccc(CN(C)C)c4)cc23)c(-c2ccc(NC(=O)N(C)C)cc2)n1 [GSK1070916] | 109% |  | 114% |  | 107% |  | 93.8% |  | 94.8% |  | 81.9% |  | 89.3% |  | 130% |  | 109% |  | 89% |  | remaining activity at 0.1 µM [11]: 101%; remaining activity at 0.1 µM [12]: 92.6%
